Laboratory results reported in the NIST ThermoML archive (doi:10.1007/s10765-006-0082-x).
± gives the expanded uncertainty stated by the source.

Test: compressibility factor (dimensionless); xn = mol fraction of the nth substance listed
Conditions: Liquid, Burnett expansion method

[N-]=[N+]=O [nitrous oxide] + FC(F)F
Conditions	compressibility factor
303.25 K, 141.8 kPa, x1 = 0.6613	0.9915 ± 0.0001
303.25 K, 151.7 kPa, x1 = 0.3152	0.9906 ± 0.0001
303.25 K, 160.7 kPa, x1 = 0.2248	0.991 ± 0.0002
303.25 K, 174.2 kPa, x1 = 0.5419	0.9896 ± 0.0001
303.25 K, 182.2 kPa, x1 = 0.4308	0.9882 ± 0.0001
303.25 K, 209.6 kPa, x1 = 0.7758	0.9883 ± 0.0001
303.25 K, 211.4 kPa, x1 = 0.6613	0.9879 ± 0.0001
303.25 K, 225.8 kPa, x1 = 0.3152	0.9858 ± 0.0001
303.25 K, 239.5 kPa, x1 = 0.2248	0.9872 ± 0.0002
303.25 K, 259.3 kPa, x1 = 0.5419	0.9847 ± 0.0001
303.25 K, 271.2 kPa, x1 = 0.4308	0.9832 ± 0.0001
303.25 K, 311.9 kPa, x1 = 0.7758	0.983 ± 0.0001
303.25 K, 314.4 kPa, x1 = 0.6613	0.9824 ± 0.0001
303.25 K, 335.5 kPa, x1 = 0.3152	0.9789 ± 0.0001
303.25 K, 356.1 kPa, x1 = 0.2248	0.9814 ± 0.0002
303.25 K, 385.1 kPa, x1 = 0.5419	0.9775 ± 0.0001
303.25 K, 402.6 kPa, x1 = 0.4308	0.9756 ± 0.0001
303.25 K, 462.7 kPa, x1 = 0.7758	0.9749 ± 0.0001
303.25 K, 466.4 kPa, x1 = 0.6613	0.974 ± 0.0001
303.25 K, 496.7 kPa, x1 = 0.3152	0.9688 ± 0.0001
303.25 K, 528.1 kPa, x1 = 0.2248	0.9726 ± 0.0002
303.25 K, 569.8 kPa, x1 = 0.5419	0.9668 ± 0.0001
303.25 K, 595 kPa, x1 = 0.4308	0.9638 ± 0.0001
303.25 K, 683.7 kPa, x1 = 0.7758	0.9628 ± 0.0001
303.25 K, 688.8 kPa, x1 = 0.6613	0.9615 ± 0.0001
303.25 K, 731.3 kPa, x1 = 0.3152	0.9534 ± 0.0001
303.25 K, 779.4 kPa, x1 = 0.2248	0.9596 ± 0.0002
303.25 K, 838.3 kPa, x1 = 0.5419	0.9507 ± 0.0001
303.25 K, 874.1 kPa, x1 = 0.4308	0.9464 ± 0.0001
303.25 K, 1003.6 kPa, x1 = 0.7758	0.9446 ± 0.0001
303.25 K, 1010.4 kPa, x1 = 0.6613	0.9427 ± 0.0001
303.25 K, 1068.3 kPa, x1 = 0.3152	0.9309 ± 0.0001
303.25 K, 1142.3 kPa, x1 = 0.2248	0.94 ± 0.0002
303.25 K, 1222.8 kPa, x1 = 0.5419	0.9269 ± 0.0001
303.25 K, 1272.3 kPa, x1 = 0.4308	0.9208 ± 0.0001
303.25 K, 1459.1 kPa, x1 = 0.7758	0.918 ± 0.0001
303.25 K, 1467.5 kPa, x1 = 0.6613	0.9152 ± 0.0001
303.25 K, 1541.6 kPa, x1 = 0.3152	0.8979 ± 0.0001
303.25 K, 1657.1 kPa, x1 = 0.2248	0.9115 ± 0.0002
303.25 K, 1760.9 kPa, x1 = 0.5419	0.8922 ± 0.0001
303.25 K, 1825.8 kPa, x1 = 0.4308	0.8832 ± 0.0001
303.25 K, 2090.5 kPa, x1 = 0.7758	0.8791 ± 0.0001
303.25 K, 2099 kPa, x1 = 0.6613	0.8749 ± 0.0001
303.25 K, 2185.1 kPa, x1 = 0.3152	0.8507 ± 0.0001
303.25 K, 2366.6 kPa, x1 = 0.2248	0.8701 ± 0.0001
303.25 K, 2486.5 kPa, x1 = 0.5419	0.8421 ± 0.0001
303.25 K, 2565.1 kPa, x1 = 0.4308	0.8294 ± 0.0001
303.25 K, 2929 kPa, x1 = 0.7758	0.8233 ± 0.0001
303.25 K, 2933.8 kPa, x1 = 0.6613	0.8174 ± 0.0001
303.25 K, 3012.1 kPa, x1 = 0.3152	0.7838 ± 0.0001
303.25 K, 3303.6 kPa, x1 = 0.2248	0.8119 ± 0.0001
303.25 K, 3408.6 kPa, x1 = 0.5419	0.7716 ± 0.0001
303.25 K, 3489.6 kPa, x1 = 0.4308	0.7542 ± 0.0001
303.25 K, 3965.1 kPa, x1 = 0.7758	0.7449 ± 0.0001
323.43 K, 176.4 kPa, x1 = 0.5105	0.9908 ± 0.0001
323.43 K, 262.8 kPa, x1 = 0.5105	0.987 ± 0.0001
323.43 K, 391 kPa, x1 = 0.5105	0.9814 ± 0.0001
323.43 K, 579.9 kPa, x1 = 0.5105	0.9729 ± 0.0001
323.43 K, 856.1 kPa, x1 = 0.5105	0.96 ± 0.0001
323.43 K, 1255 kPa, x1 = 0.5105	0.9406 ± 0.0001
323.43 K, 1820.9 kPa, x1 = 0.5105	0.9123 ± 0.0001
323.43 K, 2601.4 kPa, x1 = 0.5105	0.8711 ± 0.0001
323.43 K, 3632.8 kPa, x1 = 0.5105	0.8131 ± 0.0001
323.44 K, 159.9 kPa, x1 = 0.6428	0.9917 ± 0.0001
323.44 K, 170.7 kPa, x1 = 0.7792	0.992 ± 0.0001
323.44 K, 174 kPa, x1 = 0.358	0.9909 ± 0.0001
323.44 K, 238.4 kPa, x1 = 0.6428	0.9886 ± 0.0001
323.44 K, 254.5 kPa, x1 = 0.7792	0.9888 ± 0.0001
323.44 K, 259.3 kPa, x1 = 0.358	0.9869 ± 0.0001
323.44 K, 354.9 kPa, x1 = 0.6428	0.9837 ± 0.0001
323.44 K, 378.9 kPa, x1 = 0.7792	0.9837 ± 0.0001
323.44 K, 385.6 kPa, x1 = 0.358	0.9809 ± 0.0001
323.44 K, 527.1 kPa, x1 = 0.6428	0.9764 ± 0.0001
323.44 K, 562.3 kPa, x1 = 0.7792	0.9759 ± 0.0001
323.44 K, 571.6 kPa, x1 = 0.358	0.972 ± 0.0001
323.44 K, 779.5 kPa, x1 = 0.6428	0.9653 ± 0.0001
323.44 K, 831.2 kPa, x1 = 0.7792	0.9642 ± 0.0001
323.44 K, 843.2 kPa, x1 = 0.358	0.9583 ± 0.0001
323.44 K, 1145.9 kPa, x1 = 0.6428	0.9485 ± 0.0001
323.44 K, 1221 kPa, x1 = 0.7792	0.9467 ± 0.0001
323.44 K, 1235.2 kPa, x1 = 0.358	0.9384 ± 0.0001
323.44 K, 1669.1 kPa, x1 = 0.6428	0.9234 ± 0.0001
323.44 K, 1777.2 kPa, x1 = 0.7792	0.921 ± 0.0001
323.44 K, 1790.3 kPa, x1 = 0.358	0.9091 ± 0.0001
323.44 K, 2399.2 kPa, x1 = 0.6428	0.8872 ± 0.0001
323.44 K, 2551 kPa, x1 = 0.7792	0.8837 ± 0.0001
323.44 K, 2553.4 kPa, x1 = 0.358	0.8666 ± 0.0001
323.44 K, 3379.9 kPa, x1 = 0.6428	0.8354 ± 0.0001
323.44 K, 3557 kPa, x1 = 0.358	0.8069 ± 0.0001
323.44 K, 3585.4 kPa, x1 = 0.7792	0.8302 ± 0.0001
343.87 K, 201 kPa, x1 = 0.7837	0.9917 ± 0.0001
343.87 K, 299.8 kPa, x1 = 0.7837	0.9888 ± 0.0001
343.87 K, 446.5 kPa, x1 = 0.7837	0.9842 ± 0.0001
343.87 K, 663 kPa, x1 = 0.7837	0.9769 ± 0.0001
343.87 K, 980.8 kPa, x1 = 0.7837	0.966 ± 0.0001
343.87 K, 1442.6 kPa, x1 = 0.7837	0.9497 ± 0.0001
343.87 K, 2103.1 kPa, x1 = 0.7837	0.9254 ± 0.0001
343.87 K, 3026.4 kPa, x1 = 0.7837	0.8901 ± 0.0001
343.87 K, 4273 kPa, x1 = 0.7837	0.8401 ± 0.0001
343.95 K, 79.8 kPa, x1 = 0.6698	0.9965 ± 0.0001
343.95 K, 90.5 kPa, x1 = 0.2403	0.991 ± 0.0002
343.95 K, 92.3 kPa, x1 = 0.4174	0.9925 ± 0.0001
343.95 K, 119.5 kPa, x1 = 0.6698	0.9953 ± 0.0001
343.95 K, 128.4 kPa, x1 = 0.536	0.9933 ± 0.0001
343.95 K, 135.6 kPa, x1 = 0.2403	0.991 ± 0.0002
343.95 K, 138.2 kPa, x1 = 0.4174	0.9917 ± 0.0001
343.95 K, 178.9 kPa, x1 = 0.6698	0.9945 ± 0.0001
343.95 K, 192 kPa, x1 = 0.536	0.9915 ± 0.0001
343.95 K, 202.9 kPa, x1 = 0.2403	0.9897 ± 0.0002
343.95 K, 206.8 kPa, x1 = 0.4174	0.9901 ± 0.0001
343.95 K, 266.9 kPa, x1 = 0.6698	0.9901 ± 0.0001
343.95 K, 287 kPa, x1 = 0.536	0.9886 ± 0.0001
343.95 K, 303.2 kPa, x1 = 0.2403	0.9866 ± 0.0002
343.95 K, 308.9 kPa, x1 = 0.4174	0.9871 ± 0.0001
343.95 K, 398.2 kPa, x1 = 0.6698	0.9857 ± 0.0001
343.95 K, 428 kPa, x1 = 0.536	0.9839 ± 0.0001
343.95 K, 451.8 kPa, x1 = 0.2403	0.9812 ± 0.0002
343.95 K, 460.6 kPa, x1 = 0.4174	0.9821 ± 0.0001
343.95 K, 592.7 kPa, x1 = 0.6698	0.9789 ± 0.0001
343.95 K, 636.6 kPa, x1 = 0.536	0.9767 ± 0.0001
343.95 K, 671.3 kPa, x1 = 0.2403	0.9728 ± 0.0002
343.95 K, 684.7 kPa, x1 = 0.4174	0.9741 ± 0.0001
343.95 K, 879 kPa, x1 = 0.6698	0.9688 ± 0.0001
343.95 K, 943.2 kPa, x1 = 0.536	0.9656 ± 0.0001
343.95 K, 992.7 kPa, x1 = 0.2403	0.9599 ± 0.0002
343.95 K, 1013 kPa, x1 = 0.4174	0.9617 ± 0.0001
343.95 K, 1296.6 kPa, x1 = 0.6698	0.9537 ± 0.0001
343.95 K, 1389 kPa, x1 = 0.536	0.9489 ± 0.0001
343.95 K, 1457.5 kPa, x1 = 0.2403	0.9405 ± 0.0002
343.95 K, 1488.7 kPa, x1 = 0.4174	0.9431 ± 0.0001
343.95 K, 1897.6 kPa, x1 = 0.6698	0.9313 ± 0.0001
343.95 K, 2027.4 kPa, x1 = 0.536	0.9241 ± 0.0001
343.95 K, 2117.9 kPa, x1 = 0.2403	0.9119 ± 0.0002
343.95 K, 2166.3 kPa, x1 = 0.4174	0.9157 ± 0.0001
343.95 K, 2743.8 kPa, x1 = 0.6698	0.8986 ± 0.0001
343.95 K, 2920 kPa, x1 = 0.536	0.8882 ± 0.0001
343.95 K, 3030.8 kPa, x1 = 0.2403	0.8708 ± 0.0001
343.95 K, 3105.8 kPa, x1 = 0.4174	0.8761 ± 0.0001
343.95 K, 3898.2 kPa, x1 = 0.6698	0.8519 ± 0.0001
343.95 K, 4125.5 kPa, x1 = 0.536	0.8374 ± 0.0001
343.95 K, 4242.9 kPa, x1 = 0.2403	0.8135 ± 0.0001
343.95 K, 4359.1 kPa, x1 = 0.4174	0.8205 ± 0.0001
